Legend:
Experiment in all cases: relative viability (nuclei count vs DMSO), 5 days (fraction); higher = more cells survive
[1] = compound: C1=CC2=C(C=C(C(=C2N=C1)O)N=NC3=CC4=C(C=C3)C=C(C=C4)S(=O)(=O)O)S(=O)(=O)O + CC1(C)CCC(c2ccc(Cl)cc2)=C(CN2CCN(c3ccc(C(=O)NS(=O)(=O)c4ccc(N[C@H](CCN5CCOCC5)CSc5ccccc5)c(S(=O)(=O)C(F)(F)F)c4)cc3)CC2)C1 [Navitoclax] (partner 0.5 µM)
In short: (§1)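 A single step with final 0.05% Triton X-100, 1% formaldehyde and 1 ug/ml Hoechst fixed the cells and stained nuclei 5 days after treatment. Lung cancer cell lines in 1536-well plates had been treated by pin tool the day after seeding with one drug alone or a fixed anchor-drug dose plus five library-drug doses (not always all listed) in √10 steps, and nuclei were counted on 4× images. Relative viability is the ratio of nuclei in treated wells to nuclei in vehicle wells, taken as the median of duplicate plates.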

[2] = compound: C1=CC2=C(C=C(C(=C2N=C1)O)N=NC3=CC4=C(C=C3)C=C(C=C4)S(=O)(=O)O)S(=O)(=O)O + COc1cc2c(Oc3ccc(NC(=O)C4(C(=O)Nc5ccc(F)cc5)CC4)cc3F)ccnc2cc1OCCCN1CCOCC1 [Foretinib] (partner 0.25 µM)
In short: as §1

AT-7519 = compound: O=C(NC1CCNCC1)c1n[nH]cc1NC(=O)c1c(Cl)cccc1Cl [AT-7519]
In short: (§2)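 Lung cancer cell lines received five library-drug doses (not always all listed) spaced by √10, pinned on vehicle-anchored 1536-well plates after an overnight stay at 37 °C. Five days later, with no medium change, nuclei were Hoechst-stained, imaged at 4× and counted with MetaXpress. Viability is treated-well nuclei relative to vehicle-well nuclei, as a median across plates. Passing plates had control CV below 25% and at least one doubling.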

[3] = compound: C1=CC2=C(C=C(C(=C2N=C1)O)N=NC3=CC4=C(C=C3)C=C(C=C4)S(=O)(=O)O)S(=O)(=O)O
In short: as §2

Cell Line	relative viability ([1]; first compound 0.08 µM)	relative viability ([1]; first compound 0.253 µM)	relative viability ([1]; first compound 0.8 µM)	relative viability ([1]; first compound 2.53 µM)	relative viability ([1]; first compound 8 µM)	relative viability ([2]; first compound 0.08 µM)	relative viability ([2]; first compound 0.253 µM)	relative viability ([2]; first compound 0.8 µM)	relative viability ([2]; first compound 2.53 µM)	relative viability ([2]; first compound 8 µM)	relative viability (AT-7519; 0.01 µM)	relative viability (AT-7519; 0.03162 µM)	relative viability (AT-7519; 0.3162 µM)	relative viability (AT-7519; 1 µM)	relative viability ([3]; 0.08 µM)	relative viability ([3]; 0.253 µM)	relative viability ([3]; 0.8 µM)	relative viability ([3]; 2.53 µM)	relative viability ([3]; 8 µM)
NCI-H3122	0.98	1.04	0.996	1.03	1.04	0.967	0.977	0.925	0.982	0.973	1.09	1	1.01	0.699	1.03	0.976	0.98	0.999	0.956
NCI-H460	1.2	1.09	1.1	1.11	1.04	1.12	1.01	1.01	1.01	0.928	1	0.89	0.982	0.601	1.07	0.992	0.977	0.987	0.945
NCI-H1793	0.48	0.364	–	0.545	0.557	0.539	0.606	0.674	0.749	0.71	0.854	0.9	0.905	0.832	1.1	0.967	0.859	1.02	0.843
NCI-H1734	1.13	0.86	0.784	0.877	0.884	0.916	0.892	0.777	0.891	0.88	1.06	0.918	0.782	0.562	1.12	0.981	0.951	0.92	0.996
LXF-289	1	0.928	0.894	0.998	0.919	1.09	0.987	0.998	0.974	0.914	1	0.938	1.01	1.02	1.09	0.958	1.01	1.04	0.955
H3255	0.502	0.477	0.487	0.604	0.646	0.693	0.851	0.835	0.916	0.628	1.04	0.96	0.969	0.838	1.01	0.965	1.01	1.03	1.04
201T	1.24	1.21	1.22	1.27	1.16	1.21	1.14	1.15	1.15	1.05	1.02	0.988	1.04	1.11	1.01	0.995	0.985	1.03	0.982
NCI-H2126	0.882	0.792	0.845	0.935	0.832	1.22	1.16	1.22	1.25	1.15	1.01	1	0.94	0.875	1.05	0.996	0.908	1.04	0.964
HOP-62	1.1	1.03	1.12	1.07	1.1	1.23	1.03	1.13	1.15	1.04	0.949	0.949	1.04	1.04	1.06	0.931	0.964	1.03	1.04
CAL-12T	1.2	1.45	1.14	1.5	1.35	1.08	1.25	1.12	1.06	0.772	0.98	1.06	0.552	0.256	1.08	0.986	0.928	1.09	0.932
NCI-H520	1.17	0.99	1.07	1.07	1.13	1.01	0.828	0.901	0.887	1.05	1.06	0.925	0.915	0.695	1.09	0.926	1.02	0.985	1.08
NCI-H1755	1.06	0.963	0.977	0.993	0.726	0.915	0.916	0.869	0.944	0.89	1.01	0.994	1.02	0.963	1.03	0.962	0.949	1.01	1.03
NCI-H2023	1.03	1.01	0.965	0.984	0.973	0.769	0.747	0.794	0.997	0.876	1.06	0.873	0.848	0.547	1.02	0.903	0.987	1.1	0.989
NCI-H2009	1.19	1.1	1.08	1.14	1.18	1.3	1.25	1.18	1.28	0.739	1.06	0.969	1.02	0.78	1.02	0.987	1.03	1.01	0.922
